Laboratory results reported in US20040241098A1, “Fungicidal mixture containing arylamidine derivatives” (priority 2001, published 2004).

How the values were obtained:
[1] = system: Wheat powdery mildew (Erysiphe graminis); assay: open field trial on wheat, powdery mildew; assay type: in vivo; details: natural contamination, measured 59 days after the application
Procedure: (§1) They are intended to give an illustration of the efficacy of the compositions according to the invention on cereal diseases, in particular the compositions combining compound (A), having the chemical name N-ethyl-N-methyl-N′-[4-(chloro-3-trifluoromethylphénoxy)-2,5-xylyl]formamidine, with fungicidal compounds of the triazole and morpholine type. The trials on cereals were carried out in an open field.
(§2) The objective of these field trials is therefore to test the efficacy of compounds (A) of formula (I), in particular N-ethyl-N-methyl-N′-[4-(chloro-3-trifluoromethylphenoxy)-2,5-xylyl]formamidine, alone at 125 g/ha and combined with 2 fungicides which are commercially available: fluquinconazole (100 g/ha) and fenpropimorph (750 g/ha) representing 2 classes of fungicidal compounds. Powdery mildew, brush rust and Septoria disease mycosphaerella graminicola (Septoria tritici) are the principal diseases treated.
The products tested are therefore
N-ethyl-N-methyl-N′-[4-(chloro-3-trifluorométhylphénoxy)-2,5-xylyl]-formamidine as compound (A) at 125 g/ha as an EC type formulation at 100 g/l, fluquinconazole as compound (B) at 100 g/ha as a formulation at 100 g/l, fenpropimorph as another compound (B) at 750 g/ha at 750 g/l, compound (A) and fluquinconazole combination at 125+100 g/ha as a fresh preparation, compound (A) and fenpropimorph combination at 125+750 g/ha, also as a fresh preparation, epoxyconazole+kresoxim-methyl at 125+125 g/ha on the 3 diseases, quinoxyfen at 150 g/ha on powdery mildew.
(§3) Each trial comprises 3 repeats and untreated control plots are included in the experimental design in order to measure the severity of the diseases.
All the trials are conducted under natural contamination conditions. The equipment for application is a constant compressed air pressure back sprayer. The spray nozzles have slits. […]

[2] = system: powdery mildew, brown rust and Septoria disease; assay: open field trials on cereals, conclusion over the 3 diseases; assay type: in vivo
Procedure: as §1, §2, §3
All the trials are conducted under natural contamination conditions. The equipment for application is a constant compressed air pressure back sprayer. The spray nozzles have slits.
The efficacy results are obtained from controls carried out in the field: […]

O=c1c2cc(F)ccc2nc(-n2cncn2)n1-c1ccc(Cl)cc1Cl [Fluquinconazole, fluquinconazole]
efficacy / persistence of activity on wheat powdery mildew [1]: no longer have an activity

CC(Cc1ccc(C(C)(C)C)cc1)CN1C[C@@H](C)O[C@@H](C)C1 (some centres unmarked) [fenpropimorph]
efficacy / persistence of activity on wheat powdery mildew [1]: no longer have an activity

Fc1ccc(Oc2ccnc3cc(Cl)cc(Cl)c23)cc1 [Quinoxyfen, quinoxyfen]
efficacy / persistence of activity on wheat powdery mildew [1]: low but significant efficacy

CCN(C)C=Nc1cc(C)c(Oc2ccc(Cl)c(C(F)(F)F)c2)cc1C [compound (A), N-ethyl-N-methyl-N′-[4-(chloro-3-trifluoromethylphénoxy)-2,5-xylyl]formamidine]
effect on persistence of activity of compounds (B) ([2]; 3 major cereal diseases: powdery mildew, brown rust and Septoria disease): significantly improve the persistence of activity of compounds (B) fluquinconazole and fenpropimorph
persistence of activity ([2]; compound alone): not very persistent by itself
